Laboratory results reported in ChEMBL document CHEMBL1133121, “4-(1,3-Dimethoxyprop-2-ylamino)-2,7-dimethyl-8-(2, 4-dichlorophenyl)pyrazolo[1,5-a]-1,3,5-triazine: a potent, orally bioavailable CRF(1) receptor antagonist” (J Med Chem, 2000).
“And” between values parts separate entries of the source, which are not always exact repeats. Identical values can stand only once.

Assays:
[1] = target: T1, Corticotropin-releasing factor receptor 1 (Homo sapiens, UniProt P34998); assay: Displacement of [125I]-tyrosine-ovine-CRF from human Corticotropin releasing factor receptor 1
T1 sequence (P34998 whole entry): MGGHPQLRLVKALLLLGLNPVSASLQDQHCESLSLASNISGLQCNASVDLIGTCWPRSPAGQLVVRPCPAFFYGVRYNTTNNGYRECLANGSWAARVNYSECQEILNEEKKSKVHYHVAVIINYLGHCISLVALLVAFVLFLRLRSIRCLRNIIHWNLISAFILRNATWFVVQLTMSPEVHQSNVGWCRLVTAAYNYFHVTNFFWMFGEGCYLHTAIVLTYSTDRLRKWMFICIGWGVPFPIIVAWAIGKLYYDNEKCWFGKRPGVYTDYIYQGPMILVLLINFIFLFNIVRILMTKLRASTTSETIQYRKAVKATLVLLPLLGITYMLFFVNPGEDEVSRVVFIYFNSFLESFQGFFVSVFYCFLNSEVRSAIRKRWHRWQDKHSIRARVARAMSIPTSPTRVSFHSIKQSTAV

Rattus norvegicus [2] = organism: Rattus norvegicus; assay: %binding inhibition in rat ex vivo assay after one hour; format: functional; set-up: concentration or dose not given beside the values
Rattus norvegicus [3] = organism: Rattus norvegicus; assay: %binding inhibition in rat ex vivo assay after three hours; format: functional; set-up: concentration or dose not given beside the values
Rattus norvegicus [4] = organism: Rattus norvegicus; assay: % binding inhibition in rat ex vivo assay after one hour; format: functional
Rattus norvegicus [5] = organism: Rattus norvegicus; assay: % binding inhibition in rat ex vivo assay after three hours; format: functional
[6] = t1/2 (h) value was determined in dogs after intravenous dose of 1 mg/kg; format: ADME, organism-based, Canis lupus familiaris; set-up: dose 1 mg/kg, route intravenous; settings: dog, in vivo
Canis familiaris [7] = assay: AUCT(nM.h) value was determined in dogs after intravenous dose of 1 mg/kg; format: ADME, organism-based, Canis lupus familiaris, Plasma; set-up: dose 1 mg/kg, route intravenous; settings: dog, in vivo
Rattus norvegicus [8] = assay: (§1) Tested for situational anxiety in rats by measuring the latency exit from a chamber after po administration; format: functional
[9] = Cmax(nM)value was determined in rats after po dose of 5 mg/kg; format: ADME, organism-based; set-up: dose 5 mg/kg, route oral; settings: rat, in vivo
[10] = Tmax(h)value was determined in dogs after po dose of 1 mg/kg; format: ADME, organism-based, Canis lupus familiaris; set-up: dose 1 mg/kg, route oral; settings: dog, in vivo
Rattus norvegicus [11] = assay: AUC(nM.h) value was determined in rats after po dose of 5 mg/kg; format: ADME, organism-based, Plasma; set-up: dose 5 mg/kg, route oral; settings: in vivo
Rattus norvegicus [12] = assay: as §1; format: functional; remark: listed apart in the source
[13] = C5min (nM) value was determined in dogs after intravenous dose of 1 mg/kg; format: ADME, organism-based, Canis lupus familiaris; set-up: dose 1 mg/kg, route intravenous; settings: dog, in vivo, read-out: C5 min
[14] = %bioavail value was determined in rats after po dose of 5 mg/kg; format: ADME, organism-based; set-up: dose 5 mg/kg, route oral; settings: rat, in vivo, read-out: Bioavailabiility
[15] = C5min (nM) value was determined in rats after intravenous dose of 5 mg/kg; format: ADME, organism-based; set-up: dose 5 mg/kg, route intravenous; settings: rat, in vivo, read-out: C5 min
[16] = CL (L/h/kg) value was determined in dogs after intravenous dose of 1 mg/kg; format: ADME, organism-based, Canis lupus familiaris; set-up: dose 1 mg/kg, route intravenous; settings: dog, in vivo, read-out: Vss (converted)
[17] = Vss(L/kg)value was determined in dogs after intravenous dose of 1 mg/kg; format: ADME, organism-based, Canis lupus familiaris; set-up: dose 1 mg/kg, route intravenous; settings: dog, in vivo, read-out: Vss
[18] = Tmax(h)value was determined in rats after po dose of 5 mg/kg; format: ADME, organism-based; set-up: dose 5 mg/kg, route oral; settings: rat, in vivo
[19] = % bioavailability value was determined in dogs after po dose of 1 mg/kg; format: ADME, organism-based, Canis lupus familiaris; settings: dog, in vivo, read-out: Bioavailabiility
[20] = t1/2 (h) value of was determined in rats after intravenous dose of 5 mg/kg; format: ADME, organism-based; set-up: dose 5 mg/kg, route intravenous; settings: rat, in vivo
Rattus norvegicus [21] = assay: as §1; format: functional; remark: listed apart in the source
Rattus norvegicus [22] = assay: CL(L/h/kg) value was determined in rats after intravenous dose of 5 mg/kg; format: ADME, organism-based; set-up: dose 5 mg/kg, route intravenous; settings: in vivo
Rattus norvegicus [23] = assay: AUCT(nM.h) value was determined in rats after po dose of 5 mg/kg; format: ADME, organism-based, Plasma; set-up: dose 5 mg/kg, route oral; settings: in vivo
Rattus norvegicus [24] = assay: as §1; format: functional; remark: listed apart in the source
Canis familiaris [25] = assay: AUCT(nM.h) value was determined in dogs after po dose of 1 mg/kg; format: ADME, organism-based, Canis lupus familiaris, Plasma; set-up: dose 1 mg/kg, route oral; settings: dog, in vivo
Canis familiaris [26] = assay: AUC(nM.h) value was determined in dogs after intravenous dose of 1 mg/kg; format: ADME, organism-based, Canis lupus familiaris, Plasma; set-up: dose 1 mg/kg, route intravenous; settings: dog, in vivo
[27] = Vss(L/kg) value was determined in rats after intravenous dose of 5 mg/kg; format: ADME, organism-based; set-up: dose 5 mg/kg, route intravenous; settings: rat, in vivo, read-out: Vss
Canis familiaris [28] = assay: AUC(nM.h) value was determined in dogs after po dose of 1 mg/kg; format: ADME, organism-based, Canis lupus familiaris, Plasma; set-up: dose 1 mg/kg, route oral; settings: dog, in vivo
[29] = t1/2 (h) value was determined in dogs after po dose of 1 mg/kg; format: ADME, organism-based, Canis lupus familiaris; set-up: dose 1 mg/kg, route oral; settings: dog, in vivo
[30] = t1/2 (h) value was determined in rats after po dose of 5 mg/kg; format: ADME, organism-based; set-up: dose 5 mg/kg, route oral; settings: rat, in vivo
Rattus norvegicus [31] = assay: Tested for situational anxiety in rats by measuring the latency exit from a chamber after po comparison with the activity values; format: functional

CCCC(CCC)Nc1nc(C)nc2c(-c3ccc(Cl)cc3Cl)c(C)nn12
Ki [1]: 1.6 nM | Binding inhibition (Rattus norvegicus [2]): 63.9% | Binding inhibition (Rattus norvegicus [3]): 74.8%

CCC(COC)Nc1nc(C)nc2c(-c3ccc(Cl)cc3Cl)c(C)nn12 (centres undefined)
Ki [1]: 1.9 nM

CCCC(CC)Nc1nc(C)nc2c(-c3ccc(Cl)cc3Cl)c(C)nn12 (centres undefined)
Ki [1]: 1.2 nM | Binding inhibition (Rattus norvegicus [2]): 46.6% | Binding inhibition (Rattus norvegicus [3]): 67%

CCCN(CC1CC1)c1nc(C)nc2c(-c3ccc(Cl)cc3Cl)c(C)nn12
Ki [1]: 0.7 nM | Binding inhibition (Rattus norvegicus [2]): 73.3% | Binding inhibition (Rattus norvegicus [3]): 95.4%

COCCN(CCOC)c1nc(C)nc2c(-c3ccc(Cl)cc3Cl)c(C)nn12
Ki [1]: 1.8 nM | Binding inhibition (Rattus norvegicus [2]): 85.4% | Binding inhibition (Rattus norvegicus [3]): 92.9%

CCCCC(CC)Nc1nc(C)nc2c(-c3ccc(Cl)cc3Cl)c(C)nn12 (centres undefined)
Ki [1]: 1.6 nM

CCOCC(COCC)Nc1nc(C)nc2c(-c3ccc(Cl)cc3Cl)c(C)nn12
Ki [1]: 6.2 nM

Cc1nc(N(C)c2ccccc2)n2nc(C)c(-c3ccc(Cl)cc3Cl)c2n1
Ki [1]: 44.5 nM

CCC(CC)Nc1nc(C)nc2c(-c3ccc(Cl)cc3Cl)c(C)nn12
Ki [1]: 1.1 nM | Binding inhibition (Rattus norvegicus [2]): 65.9% | Binding inhibition (Rattus norvegicus [3]): 71.8%

CCCCN(CC)c1nc(C)nc2c(-c3ccc(Cl)cc3Cl)c(C)nn12
Binding inhibition (Rattus norvegicus [4]): 73.2% | Ki [1]: 0.4 nM | Binding inhibition (Rattus norvegicus [5]): 82.9%

CCCN(CCC)c1nc(C)nc2c(-c3ccc(Cl)cc3Cl)c(C)nn12
Ki [1]: 0.6 nM

COCC(COC)Nc1nc(C)nc2c(-c3ccc(Cl)cc3Cl)c(C)nn12
half-life [6]: 34.5 h | AUC T (Canis familiaris [7]): 2.27 µM·h | Latency to exit (Rattus norvegicus [8]): 680 | Cmax [9]: 317 nM | Tmax [10]: 0.88 h | AUC (Rattus norvegicus [11]): 2.26 µM·h | Latency to exit (Rattus norvegicus [12]): <408 | concentration at 5 min [13]: 1370 nM | bioavailability [14]: 36.7% | concentration at 5 min [15]: 2880 nM | clearance [16]: 15.8 mL/min/kg | Vd [17]: 27.1 L/kg | Ki [1]: 1.7 nM | Tmax [18]: 0.44 h | bioavailability [19]: 49.7% | Binding inhibition (Rattus norvegicus [2]): 78.2% | half-life [20]: 12.3 h | Latency to exit (Rattus norvegicus [21]): <482 | CL (Rattus norvegicus [22]): 2 kg⁻¹ h⁻¹ | AUC T (Rattus norvegicus [23]): 1.86 µM·h | Latency to exit (Rattus norvegicus [24]): <426 and <286 | Binding inhibition (Rattus norvegicus [3]): 81.3% | AUC T (Canis familiaris [25]): 0.469 µM·h | AUC (Canis familiaris [26]): 2.69 µM·h | Vd [27]: 21.5 L/kg | AUC (Canis familiaris [28]): 555 Nm.H | half-life [29]: 33.4 h | half-life [30]: 16.5 h

CCCCN(CC)c1nc(C)nc2c1c(C)cn2-c1c(C)cc(C)cc1C.Cl
Binding inhibition (Rattus norvegicus [2]): <10% | Binding inhibition (Rattus norvegicus [3]): <10%

CNC1=Nc2ccc(Cl)cc2C(c2ccccc2)=[N+]([O-])C1 [CHLORDIAZEPOXIDE]
Latency to exit (Rattus norvegicus [31]): <216
